Measured values published in patent US12636268B2, “CXCL8 inhibitors for use in the treatment of COVID-19” (Dompe' Farmaceutici SPA, priority 2020, dated 2026).

Tested on: COVID-19 patients with severe pneumonia
Test: Phase 2 clinical study of Reparixin plus standard of care in COVID-19 patients with severe pneumonia
Assay type: in vivo, human
Conditions: for Composite endpoint, first occurrence (% patients) / Composite endpoint, first occurrence (n patients): oral tablets 1200 mg TID plus standard of care
Text: A phase 2 clinical study has been conducted to assess efficacy and safety of Reparixin in COVID-19 patients with severe pneumonia.
The patients participating to the trial satisfied the following inclusion criteria: • a) at least one of the following: • respiratory distress, RR≥30 breaths/min without oxygen; • Partial arterial oxygen pressure (PaO2)/Fraction of inspiration O2 (FiO2)>100<300 mmHg (1 mmHg=0.133 kPa). • b) chest imaging confirming lung involvement and inflammation. • c) inflammatory status as documented by at least one of the following: Lactate dehydrogenase (LDH)>normal range, C-reactive protein (CRP)≥100 mg/L or IL-6≥40 pg/mL, serum ferritin ≥900 ng/mL, XDP >20 mcg/mL.
Fourteen patients received the standard of care treatment only (Control group).
Thirty-two patients received Reparixin oral tablets 1200 mg TID in addition to the standard of care treatment (Reparixin group) for a maximum of 21 days.
In both groups, where necessary due to the presence of concomitant pathologies (diabetes, hypertension, cancer etc. . . ), the patients also continued to receive specific treatments for these.
The first occurrence of the composite primary endpoint (at least one of the following events: death, supplemental oxygen requirement, invasive mechanical ventilation use, admission to ICU, and use of a rescue medication for any reason) was evaluated in all the patients and the data obtained are shown in Table 2 below.
The data collected in the clinical trial were analyzed by means of the Kaplan-Meier methodology and the log-rank test was used to test for differences between treatment groups. The Kaplan-Meier method is a well-established method to analyse the patterns of events over time to estimate the probability of being free of event. The form of the estimated “survival curves” is a step function, with steps down occurring at those time points where there are events. As patients have events or are censored (patients who exit the analyses for other reasons than events) the number of patients remaining evaluable in the trial in each of the treatment groups is diminishing. The probabilities of being free of event are, as a consequence, estimated from fewer and fewer patients as time progresses. To give information in relation to this, the number of patients at risk at various time points are provided: these are the numbers of patients still at risk of having their first occurrence of the composite endpoint.

[1] = Reparixin plus standard of care vs standard of care only

CC(C)Cc1ccc([C@@H](C)C(=O)NS(C)(=O)=O)cc1 [Reparixin, R-(-)-2-(4-isobutylphenyl)propionyl methansulfonamide]
Composite endpoint, first occurrence (% patients) (Day 1, 32 evaluable patients): 9.4%
Composite endpoint, first occurrence (n patients) (Day 1, 32 evaluable patients, composite = death, supplemental oxygen requirement, invasive mechanical ventilation use, admission to ICU, or rescue medication): 3
Composite endpoint, first occurrence (% patients) (Day 2, 27 evaluable patients): 7.4%
Composite endpoint, first occurrence (n patients) (Day 2, 27 evaluable patients): 2
Time of recovery of patients (Reparixin group compared to the Control group): significantly reduced
Freedom from composite event over time (Kaplan-Meier, FIG. 1) (Reparixin group vs Control group (standard of care only), log-rank test p-value 0.0031): statistically significant higher freedom from event
Progression to more severe respiratory disease (Reparixin group vs Control group, shown by incidence of the composite endpoints): prevents the progression to more severe respiratory disease
Days of oxygen use [1]: fewer days of oxygen use
Duration of mechanical ventilation [1]: shorter subsequent duration of mechanical ventilation
Respiratory function (patients in the Reparixin group): improved respiratory function
